Source: paper PMC10850047, “Exploring the impact of PEGylation on pharmacokinetics: a size-dependent effect of polyethylene glycol on prostate-specific membrane antigen inhibitors” (EJNMMI Research, 2024)
Like-named read-outs stand apart in the source and are kept apart here.

Tests used:
PC3-PIP tumors [1] = assay: Micro-SPECT/CT imaging of 177Lu-labeled ligands in PC3-PIP tumor model; type: in vivo; settings: balb/c-nu mice, scans 1-168 h
Protocol: (§1) To perform imaging studies, the male mice bearing LNCaP tumors were injected with the corresponding radioligand (~ 2.5 MBq; 100 μL) via their tail veins. The micro-PET/CT scans (Inveon PET, Siemens) were conducted at 10, 30, 60, and 120 min after injection. The mice were anesthetized and maintained under 2% isoflurane in oxygen at a flow rate of 2 L/min during the 2-h imaging study. First, a 10 min static PET imaging acquisition was carried out, followed by a 10 min CT scan for localization and attenuation correction. Data analysis was performed using Inveon Research Workplace software. For PC3-PIP tumor model, the imaging studies were performed with micro-PET/SPECT/CT (Inliview-3000B, Novel Medical). Data analysis was performed using Nmsoft-Al ws v1.7–1 software.
Balb/c-nu mice carrying PC3-PIP tumors were chosen for the micro-SPECT/CT imaging investigation of [^177Lu]Lu-PP4-WD and [^177Lu]Lu-PP8-WD (see Additional file 1: Figure S8).

PSMA = target: T1, PSMA (Homo sapiens, UniProt Q04609); assay: Competitive cell binding assay against [68Ga]Ga-PSMA-11 on LNCaP cells; settings: competition with [68Ga]Ga-PSMA-11, natGa-labeled standards, 1 h 37 °C
T1 construct: host or cells: LNCaP
T1 sequence (Q04609 whole entry): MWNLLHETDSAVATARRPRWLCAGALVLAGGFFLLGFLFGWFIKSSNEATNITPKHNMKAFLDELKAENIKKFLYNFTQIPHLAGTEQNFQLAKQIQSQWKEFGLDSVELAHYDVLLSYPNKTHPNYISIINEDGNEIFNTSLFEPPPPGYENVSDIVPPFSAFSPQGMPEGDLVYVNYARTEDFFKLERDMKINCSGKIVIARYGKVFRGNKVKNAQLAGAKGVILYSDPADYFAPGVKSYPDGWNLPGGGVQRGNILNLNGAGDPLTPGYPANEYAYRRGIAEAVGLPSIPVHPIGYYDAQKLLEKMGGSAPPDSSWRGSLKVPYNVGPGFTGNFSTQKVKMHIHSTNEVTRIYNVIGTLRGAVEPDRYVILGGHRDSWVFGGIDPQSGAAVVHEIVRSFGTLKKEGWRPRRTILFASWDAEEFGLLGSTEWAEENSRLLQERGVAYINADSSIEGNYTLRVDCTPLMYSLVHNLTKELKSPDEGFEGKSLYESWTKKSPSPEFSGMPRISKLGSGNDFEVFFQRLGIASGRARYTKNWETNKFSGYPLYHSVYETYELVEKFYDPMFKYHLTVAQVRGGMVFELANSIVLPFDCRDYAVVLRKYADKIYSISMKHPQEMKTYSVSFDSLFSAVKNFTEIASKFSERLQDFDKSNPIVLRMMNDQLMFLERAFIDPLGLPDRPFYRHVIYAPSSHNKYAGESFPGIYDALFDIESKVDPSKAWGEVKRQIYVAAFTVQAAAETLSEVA
Protocol: LNCaP prostate cancer cell line obtained from the American Type Culture Collection (ATCC, Manassas, VA) was used for cell affinity studies. The cells were grown in a meilunbio RPMI 1640 medium (ATCC modified) supplemented with 10% fetal bovine serum and 1% streptomycin/penicillin (Thermo Fisher Scientific, USA) at 37 °C in a humidified 5% CO2 atmosphere. Two days (48 ± 2 h) prior to in vitro experiments, the cells were harvested using trypsin-ethylenediaminetetraacetic acid (EDTA; 0.25% trypsin, 0.02% EDTA) in PBS and centrifuged. The supernatant was disposed, and the cell pellet was resuspended in a culture medium, and LNCaP cells (150,000 cells/well) were counted with a hemocytometer and seeded in poly-L-lysine-coated 24-well plates used in cell binding studies. The cells were then allowed to grow at 37 °C for 48 h. PC3-PIP cells provided by Professor Xiaoyuan Chen (Singapore) require additional Puromycin (2 µg/ml) in addition to the appealed culture conditions. Detailed information regarding uptake and internalization experiments can be found in the previous report.
In order to determine the binding affinity, a competitive cell binding assay was performed. […] The total radioactivity in each well was measured with a gamma counter. […]

LNCaP cells = assay: Uptake and internalization in LNCaP cells; type: cell-based, human; settings: 120 min incubation, normalized to 10^6 cells
Protocol: LNCaP prostate cancer cell line obtained from the American Type Culture Collection (ATCC, Manassas, VA) was used for cell affinity studies. […] The supernatant was disposed, and the cell pellet was resuspended in a culture medium, and LNCaP cells (150,000 cells/well) were counted with a hemocytometer and seeded in poly-L-lysine-coated 24-well plates used in cell binding studies. The cells were then allowed to grow at 37 °C for 48 h. PC3-PIP cells provided by Professor Xiaoyuan Chen (Singapore) require additional Puromycin (2 µg/ml) in addition to the appealed culture conditions.

[2] = system: LNCaP tumor-bearing NOD/SCID mice; assay: Biodistribution in LNCaP tumor model
PC3-PIP tumors [3] = assay: Micro-PET/CT blocking experiment with 2-PMPA, PC3-PIP tumor model; type: in vivo, mice; settings: identical methodology
Protocol: as §1
(§2) To evaluate the specificity of radioligands, blocking experiments were performed. In brief, 40 nmol of the PSMA inhibitor 2-PMPA was administered, followed by the injection of approximately 2.6 MBq of radioligands after 30 min. Then a static scan of micro-PET/CT was performed 60 min later.

[4] = Radiochemical stability in PBS at 37 °C; type: physicochemical; settings: 2 h
Protocol: (§3) The radiochemical purity of samples incubated in PBS at each time point was determined using RP-HPLC. For the samples in human serum, a pretreatment step was applied. Briefly, the human serum samples underwent precipitation with acetonitrile, and the radiochemical purity of each supernatant aliquot was determined using RP-HPLC after centrifugation for 5 min at 10,000 rpm. The experiments were performed in triplicate.

[5] = system: LNCaP tumor-bearing NOD/SCID mice; settings: mouse, in vivo
[6] = system: PC3-PIP tumor-bearing balb/c-nu mice; assay: Biodistribution in PC3-PIP tumor model; type: in vivo; settings: mean ± SD (n=5)
Protocol: All animal experiments were performed with the approval of the institutional animal ethics committee. Male NOD/SCID mice (5 − 6 weeks old) implanted with LNCaP cells were used for imaging and biodistribution experiments as previously described. The mice were imaged or used in biodistribution studies once the tumor grew to 8 − 10 mm in diameter over a period of 4 − 5 weeks. At the same time, male balb/c-nu mice (5 − 6 weeks old) implanted with PC3-PIP cells were used as an alternative tumor model for imaging and biodistribution experiments.
To conduct biodistribution studies, male mice bearing LNCaP or PC3-PIP tumors with an average body weight of approximately 20 ± 5 g and a tumor diameter of 8 − 10 mm were administered a bolus injection of 2.5 MBq of the corresponding radioligand via the tail vein. After 30, 60, and 120 min, the mice were anesthetized with isoflurane and subsequently euthanized by CO2 asphyxiation. Blood was drawn, and the organs of interest were promptly harvested, blotted dry, and weighed. The radioactivity of the collected mouse organs was measured and expressed as the percentage of the injected dose per gram of tissue (%ID/g). Each group consisted of at least five mice.

[7] = Radiochemical stability in human serum at 37 °C; type: in vitro ADME; settings: 2 h
Protocol: as §3

LNCaP tumors = assay: Micro-PET/CT blocking experiment with 2-PMPA, LNCaP tumor model; type: in vivo, mice; settings: 40 nmol 2-PMPA 30 min before radioligand, static scan 60 min later
Protocol: as §1, §2

In the case of `O=C([O-])CN1CCN(CC(=O)[O-])CCN(CC(=O)NCCOCCOCCOCCOCCOCCOCCOCCOCCNC(=O)CN(CCCC[C@H](NC(=O)N[C@@H](CCC(=O)O)C(=O)O)C(=O)O)C(=O)C2c3ccccc3-c3ccccc32)CCN(CC(=O)[O-])CC1.[177Lu+3]` [[^177Lu]Lu-PP8-WD], the “Tumor-to-background ratio in micro-SPECT/CT” value (PC3-PIP tumors [1]) is reported as “favorable tumor-to-background ratio for up to 168 h”.
In the case of `O=C([O-])CN1CCN(CC(=O)[O-])CCN(CC(=O)NCCOCCOCCOCCOCCOCCOCCOCCOCCNC(=O)CN(CCCC[C@H](NC(=O)N[C@@H](CCC(=O)O)C(=O)O)C(=O)O)C(=O)C2c3ccccc3-c3ccccc32)CCN(CC(=O)[O-])CC1.[68Ga+3]` [[^68Ga]Ga-PP8-WD], the IC50 (PSMA) is reported as 6.13 ± 0.79 nM, the “Internalization in LNCaP cells” value (LNCaP cells) is reported as 5.72 ± 0.95% and the “Uptake in LNCaP cells” value (LNCaP cells) is reported as 10.16 ± 1.87%. It also gave a Tumor/Blood ratio ([2]; 30 min) of 4.67±0.32, a Tumor/Heart ratio ([2]; 30 min) of 12.31±0.58 and a Tumor/Kidney ratio ([2]; 30 min) of 0.63±0.11. The Tumor/Liver ratio ([2]; 30 min) was 10.58±0.32, the Tumor/Salivary ratio ([2]; 30 min) was 5.23±0.24 and the Tumor/Blood ratio ([2]; 60 min) was 5.31±0.54. For the same molecule, the Tumor/Heart ratio ([2]; 60 min) was 31.66±2.2, the Tumor/Kidney ratio ([2]; 60 min) was 1.22±0.35 and the Tumor/Liver ratio ([2]; 60 min) was 23.74±1.90. For the same molecule, the Tumor/Salivary ratio ([2]; 60 min) was 11.50±1.19, the Tumor/Blood ratio ([2]; 120 min) was 30.88±1.36 and the Tumor/Heart ratio ([2]; 120 min) was 75.85±3.6. The Tumor/Kidney ratio ([2]; 120 min) was 2.68±0.22, the Tumor/Liver ratio ([2]; 120 min) was 41.69±2.9 and the Tumor/Salivary ratio ([2]; 120 min) was 45.05±2.56. The “Outcome of blocking imaging with 2-PMPA” value (PC3-PIP tumors [3]) was “in concordance with those observed in the LNCaP tumor model”, the “Radiochemical purity after incubation in PBS” value [4] was 97% and the “Renal uptake reduced by a factor compared to [68Ga]Ga-Flu-1” value [5] was 20. The “Renal uptake, fold less compared to [68Ga]Ga-Flu-1” value [5] was “fivefold”, the Tumor uptake ([5]; 0.5 h) was 16.18 ± 2.53 %ID/g and the Tumor uptake ([5]; 1 h) was 18.64 ± 2.20 %ID/g. It also gave a Tumor uptake ([5]; 2 h) of 17.12 ± 2.57 %ID/g, a Blood uptake ([6]; 30 min p.i.) of 5.2±0.77 %ID/g and a Bone uptake ([6]; 30 min p.i.) of 1.21±0.57 %ID/g. The Brain uptake ([6]; 30 min p.i.) was 0.13±0.05 %ID/g, the Heart uptake ([6]; 30 min p.i.) was 1.21±0.19 %ID/g and the Kidney uptake ([6]; 30 min p.i.) was 11.38±3.15 %ID/g. For the same molecule, the Liver uptake ([6]; 30 min p.i.) was 1.11±0.10 %ID/g, the Lung uptake ([6]; 30 min p.i.) was 2.64±0.23 %ID/g and the Muscle uptake ([6]; 30 min p.i.) was 0.45±0.06 %ID/g. For the same molecule, the Salivary uptake ([6]; 30 min p.i.) was 1.23±0.17 %ID/g, the “Small int (small intestine) uptake” value ([6]; 30 min p.i.) was 0.87±0.18 %ID/g and the Spleen uptake ([6]; 30 min p.i.) was 1.39±0.26 %ID/g. For the same molecule, the Stomach uptake ([6]; 30 min p.i.) was 0.83±0.17 %ID/g, the Tumor uptake ([6]; 30 min p.i.) was 12.81±4.48 %ID/g and the Blood uptake ([6]; 60 min p.i.) was 3.89±0.18 %ID/g. The Bone uptake ([6]; 60 min p.i.) was 1.26±0.07 %ID/g, the Brain uptake ([6]; 60 min p.i.) was 0.12±0.02 %ID/g and the Heart uptake ([6]; 60 min p.i.) was 1.09±0.12 %ID/g. For the same molecule, the Kidney uptake ([6]; 60 min p.i.) was 4.52±1.51 %ID/g, the Liver uptake ([6]; 60 min p.i.) was 1.24±0.16 %ID/g and the Lung uptake ([6]; 60 min p.i.) was 2.25±0.13 %ID/g. For the same molecule, the Muscle uptake ([6]; 60 min p.i.) was 0.52±0.07 %ID/g, the Salivary uptake ([6]; 60 min p.i.) was 1.49±0.37 %ID/g and the “Small int (small intestine) uptake” value ([6]; 60 min p.i.) was 0.92±0.23 %ID/g. For the same molecule, the Spleen uptake ([6]; 60 min p.i.) was 1.30±0.21 %ID/g, the Stomach uptake ([6]; 60 min p.i.) was 0.98±0.09 %ID/g and the Tumor uptake ([6]; 60 min p.i.) was 15.21 ± 3.33 %ID/g. The Blood uptake ([6]; 120 min p.i.) was 3.12±0.48 %ID/g, the Bone uptake ([6]; 120 min p.i.) was 1.62±0.13 %ID/g and the Brain uptake ([6]; 120 min p.i.) was 0.13±0.03 %ID/g. It also gave a Heart uptake ([6]; 120 min p.i.) of 0.94±0.16 %ID/g, a Kidney uptake ([6]; 120 min p.i.) of 2.74±0.38 %ID/g and a Liver uptake ([6]; 120 min p.i.) of 1.38±0.19 %ID/g. The Lung uptake ([6]; 120 min p.i.) was 2.16±0.14 %ID/g, the Muscle uptake ([6]; 120 min p.i.) was 0.43±0.11 %ID/g and the Salivary uptake ([6]; 120 min p.i.) was 1.26±0.27 %ID/g. For the same molecule, the “Small int (small intestine) uptake” value ([6]; 120 min p.i.) was 0.89±0.27 %ID/g, the Spleen uptake ([6]; 120 min p.i.) was 0.96±0.14 %ID/g and the Stomach uptake ([6]; 120 min p.i.) was 0.79±0.08. %ID/g. The Tumor uptake ([6]; 120 min p.i.) was 14.3±5.37 %ID/g, the “Radiochemical purity after incubation in human serum” value [7] was 96.69 ± 0.21% and the “Radioactivity upon blocking with 2-PMPA” value (LNCaP tumors) was “substantially reduced radioactivity”.
